Measured values from PubChem BioAssay AID1745844 (Carcinogenic Potency Database (CPDB), 2022).
“And” between values parts separate entries of the source, which are not always exact repeats. Equal values may be shown once. The source made the active and inactive calls. No rule for the calls is given here.

Tested on: rodent lifetime carcinogenesis bioassay, tumor incidence TD50
Assay: chronic cancer bioassays in animals – CPDB, compiled studies (AID 1745844)

## O=C(Nc1ccc2c(c1)Cc1ccccc1-2)C(F)(F)F
rat, strain Buffalo, females, in feed, site: ear duct, lesion: squamous-cell carcinoma, dosed 53 weeks, study length 54 weeks
  TD50: 4.94 mg/kg/day
rat, strain Buffalo, females, in feed, site: liver, lesion: hepatoma, dosed 53 weeks, study length 54 weeks
  TD50: 1.9 mg/kg/day
rat, strain Buffalo, females, in feed, site: mammary gland, lesion: adenocarcinoma, dosed 53 weeks, study length 54 weeks
  TD50: 1.62 mg/kg/day

## NC(=O)N(CCO)N=O
mouse, strain Swiss, females, in drinking water, site: all sites, lesion: lymphoma, dosed 50 weeks, study length 51 weeks
  TD50: 0.603 mg/kg/day
mouse, strain Swiss, females, in drinking water, site: lung, lesion: adenoma, dosed 50 weeks, study length 51 weeks
  TD50: 1.97 mg/kg/day
mouse, strain Swiss, males, in drinking water, site: all sites, lesion: lymphoma, dosed 50 weeks, study length 51 weeks
  TD50: 1.27 mg/kg/day
mouse, strain Swiss, males, in drinking water, site: any site (literature study), lesion: one or several types, types not named, dosed 50 weeks, study length 51 weeks
  TD50: 0.353 mg/kg/day
mouse, strain Swiss, males, in drinking water, site: lung, lesion: adenoma, dosed 50 weeks, study length 51 weeks
  TD50: 0.382 mg/kg/day
rat, strain Fischer 344, females, by gavage, site: Zymbal's gland, lesion: carcinoma, dosed 37 weeks, study length 60 weeks
  TD50: 3.15 mg/kg/day
rat, strain Fischer 344, females, by gavage, site: colon, lesion: adenoma, dosed 37 weeks, study length 60 weeks
  TD50: 1.53 mg/kg/day
rat, strain Fischer 344, females, by gavage, site: forestomach, lesion: squamous-cell carcinoma, dosed 37 weeks, study length 60 weeks
  TD50: 3.15 mg/kg/day
rat, strain Fischer 344, females, by gavage, site: mammary gland, lesion: adenocarcinoma, dosed 37 weeks, study length 60 weeks
  TD50: 0.452 mg/kg/day
rat, strain Fischer 344, males, by gavage, site: Zymbal's gland, lesion: carcinoma, dosed 37 weeks, study length 55 weeks
  TD50: 0.879 mg/kg/day
rat, strain Fischer 344, males, by gavage, site: Zymbal's gland, lesion: several types, types named in the paper, dosed 37 weeks, study length 55 weeks
  TD50: 0.568 mg/kg/day
rat, strain Fischer 344, males, by gavage, site: colon, lesion: adenocarcinoma, dosed 37 weeks, study length 55 weeks
  TD50: 0.983 mg/kg/day
rat, strain Fischer 344, males, by gavage, site: colon, lesion: several types, types named in the paper, dosed 37 weeks, study length 55 weeks
  TD50: 0.24 mg/kg/day
rat, strain Fischer 344, males, by gavage, site: forestomach, lesion: several types, types named in the paper, dosed 37 weeks, study length 55 weeks
  TD50: 0.203 mg/kg/day
rat, strain Fischer 344, males, by gavage, site: forestomach, lesion: squamous-cell carcinoma, dosed 37 weeks, study length 55 weeks
  TD50: 0.637 mg/kg/day
rat, strain Fischer 344, males, by gavage, site: lung, lesion: malignant tumor, dosed 37 weeks, study length 55 weeks
  TD50: 0.602 mg/kg/day
rat, strain Fischer 344, males, by gavage, site: lung, lesion: several types, types named in the paper, dosed 37 weeks, study length 55 weeks
  TD50: 0.0776 mg/kg/day
rat, strain MRC-Wistar, females, in drinking water, site: all sites, lesion: B-cell lymphoma, dosed 39 weeks, study length 85 weeks
  TD50: 3.16 mg/kg/day
rat, strain MRC-Wistar, females, in drinking water, site: all sites, lesion: myelocytic leukemia, dosed 39 weeks, study length 85 weeks
  TD50: 3.16 mg/kg/day (inactive)
rat, strain MRC-Wistar, females, in drinking water, site: any site (literature study), lesion: one or several types, types not named, dosed 39 weeks, study length 85 weeks
  TD50: 0.32 mg/kg/day
rat, strain MRC-Wistar, females, in drinking water, site: liver, lesion: one or several types, types not named, dosed 39 weeks, study length 85 weeks
  TD50: 10 mg/kg/day
rat, strain MRC-Wistar, males, in drinking water, site: all sites, lesion: B-cell lymphoma, dosed 39 weeks, study length 85 weeks
  TD50: 1.56 mg/kg/day
rat, strain MRC-Wistar, males, in drinking water, site: all sites, lesion: lymphocytic lymphoma, dosed 52 weeks, study length 70 weeks
  TD50: 2.03 mg/kg/day
rat, strain MRC-Wistar, males, in drinking water, site: all sites, lesion: malignant lymphoma, dosed 52 weeks, study length 70 weeks
  TD50: 2.03 mg/kg/day
rat, strain MRC-Wistar, males, in drinking water, site: all sites, lesion: myelocytic leukemia, dosed 39 weeks, study length 85 weeks
  TD50: 2.02 mg/kg/day (inactive)
rat, strain MRC-Wistar, males, in drinking water, site: any site (literature study), lesion: one or several types, types not named, dosed 39 weeks, study length 85 weeks
  TD50: 0.195 mg/kg/day
rat, strain MRC-Wistar, males, in drinking water, site: any site (literature study), lesion: several types, types named in the paper, dosed 52 weeks, study length 70 weeks
  TD50: 0.36 mg/kg/day
rat, strain MRC-Wistar, males, in drinking water, site: bone, lesion: osteosarcoma, dosed 39 weeks, study length 85 weeks
  TD50: 1.56 mg/kg/day
rat, strain MRC-Wistar, males, in drinking water, site: bone, lesion: osteosarcoma, dosed 52 weeks, study length 70 weeks
  TD50: 1.52 mg/kg/day
rat, strain MRC-Wistar, males, in drinking water, site: liver, lesion: one or several types, types not named, dosed 39 weeks, study length 85 weeks
  TD50: 2.77 mg/kg/day
rat, strain Wistar, males, in drinking water, site: all sites, lesion: B-cell lymphoma, dosed 90 weeks, study length 90 weeks
  TD50: 15.9 mg/kg/day
rat, strain Wistar, males, in drinking water, site: all sites, lesion: myelocytic leukemia, dosed 90 weeks, study length 90 weeks
  TD50: 3.66 mg/kg/day
rat, strain Wistar, males, in drinking water, site: any site (literature study), lesion: one or several types, types not named, dosed 90 weeks, study length 90 weeks
  TD50: 0.576 mg/kg/day
rat, strain Wistar, males, in drinking water, site: kidney, lesion: one or several types, types not named, dosed 90 weeks, study length 90 weeks
  TD50: 4.93 mg/kg/day
rat, strain Wistar, males, in drinking water, site: lung, lesion: one or several types, types not named, dosed 90 weeks, study length 90 weeks
  TD50: 1.59 mg/kg/day
rat, strain Wistar, males, in drinking water, site: mammary gland, lesion: adenocarcinoma, dosed 90 weeks, study length 90 weeks
  TD50: 4.14 mg/kg/day

## CCOC(=O)c1ccc(N)cc1
rat, strain ACI, both sexes, in feed, site: colorectum, lesion: papilloma, dosed 94 weeks, study length 94 weeks
  TD50: 331 mg/kg/day
rat, strain ACI, both sexes, in feed, site: colorectum, lesion: squamous-cell carcinoma, dosed 94 weeks, study length 94 weeks
  TD50: 1760 mg/kg/day
rat, strain ACI, both sexes, in feed, site: intestine, lesion: several types, types named in the paper, dosed 94 weeks, study length 94 weeks
  TD50: 191 mg/kg/day
rat, strain ACI, females, in feed, site: cecum, lesion: adenoma, dosed 68 weeks, study length 68 weeks
  TD50: 1270 mg/kg/day
rat, strain ACI, females, in feed, site: colorectum, lesion: adenocarcinoma, dosed 68 weeks, study length 68 weeks
  TD50: 373 mg/kg/day
rat, strain ACI, females, in feed, site: colorectum, lesion: adenoma, dosed 68 weeks, study length 68 weeks
  TD50: 977 mg/kg/day
rat, strain ACI, females, in feed, site: colorectum, lesion: papilloma, dosed 68 weeks, study length 68 weeks
  TD50: 219 mg/kg/day
rat, strain ACI, females, in feed, site: colorectum, lesion: squamous-cell carcinoma, dosed 68 weeks, study length 68 weeks
  TD50: 1760 mg/kg/day
rat, strain ACI, females, in feed, site: urinary bladder, lesion: one or several types, types not named, dosed 68 weeks, study length 68 weeks
  TD50: 2560 mg/kg/day (inactive) and 1640 mg/kg/day (inactive)
rat, strain ACI, males, in feed, site: cecum, lesion: adenoma, dosed 68 weeks, study length 68 weeks
  TD50: 4250 mg/kg/day (inactive)
rat, strain ACI, males, in feed, site: colorectum, lesion: adenocarcinoma, dosed 68 weeks, study length 68 weeks
  TD50: 182 mg/kg/day
rat, strain ACI, males, in feed, site: colorectum, lesion: adenoma, dosed 68 weeks, study length 68 weeks
  TD50: 1700 mg/kg/day
rat, strain ACI, males, in feed, site: colorectum, lesion: squamous-cell carcinoma, dosed 68 weeks, study length 68 weeks
  TD50: 2050 mg/kg/day

## NC(=S)NNS(=O)(=O)c1ccccc1
mouse, strain Swiss, females, by gavage, site: liver, lesion: liver-cell tumor, dosed 50 weeks, study length 60 weeks
  TD50: 46.6 mg/kg/day
mouse, strain Swiss, females, by gavage, site: lung, lesion: one or several types, types not named, dosed 50 weeks, study length 60 weeks
  TD50: 46.6 mg/kg/day

## CCNN
mouse, strain Swiss albino, females, in drinking water, site: blood vessels, lesion: angioma, dosed 82 weeks, study length 82 weeks
  TD50: 42.9 mg/kg/day
mouse, strain Swiss albino, females, in drinking water, site: blood vessels, lesion: angiosarcoma, dosed 82 weeks, study length 82 weeks
  TD50: 27.6 mg/kg/day
mouse, strain Swiss albino, females, in drinking water, site: blood vessels, lesion: several types, types named in the paper, dosed 82 weeks, study length 82 weeks
  TD50: 11.6 mg/kg/day
mouse, strain Swiss albino, females, in drinking water, site: liver, lesion: angioma, dosed 82 weeks, study length 82 weeks
  TD50: 42.9 mg/kg/day
mouse, strain Swiss albino, females, in drinking water, site: liver, lesion: angiosarcoma, dosed 82 weeks, study length 82 weeks
  TD50: 27.6 mg/kg/day
mouse, strain Swiss albino, females, in drinking water, site: liver, lesion: several types, types named in the paper, dosed 82 weeks, study length 82 weeks
  TD50: 13 mg/kg/day
mouse, strain Swiss albino, females, in drinking water, site: lung, lesion: adenocarcinoma, dosed 82 weeks, study length 82 weeks
  TD50: 14 mg/kg/day
mouse, strain Swiss albino, females, in drinking water, site: lung, lesion: adenoma, dosed 82 weeks, study length 82 weeks
  TD50: 5.62 mg/kg/day
mouse, strain Swiss albino, females, in drinking water, site: lung, lesion: several types, types named in the paper, dosed 82 weeks, study length 82 weeks
  TD50: 5.22 mg/kg/day
mouse, strain Swiss albino, males, in drinking water, site: blood vessels, lesion: angiosarcoma, dosed 72 weeks, study length 72 weeks
  TD50: 46.9 mg/kg/day
mouse, strain Swiss albino, males, in drinking water, site: blood vessels, lesion: several types, types named in the paper, dosed 72 weeks, study length 72 weeks
  TD50: 38.6 mg/kg/day
mouse, strain Swiss albino, males, in drinking water, site: liver, lesion: angiosarcoma, dosed 72 weeks, study length 72 weeks
  TD50: 46.9 mg/kg/day
mouse, strain Swiss albino, males, in drinking water, site: liver, lesion: several types, types named in the paper, dosed 72 weeks, study length 72 weeks
  TD50: 48.1 mg/kg/day
mouse, strain Swiss albino, males, in drinking water, site: lung, lesion: adenoma, dosed 72 weeks, study length 72 weeks
  TD50: 7.82 mg/kg/day
mouse, strain Swiss albino, males, in drinking water, site: lung, lesion: several types, types named in the paper, dosed 72 weeks, study length 72 weeks
  TD50: 8.81 mg/kg/day

## O=S(=O)(O)c1c(N=Nc2c(O)ccc3ccccc23)ccc2ccccc12
rat, strain Osborne-Mendel, females, in feed, site: liver, lesion: adenoma, dosed 105 weeks, study length 105 weeks
  carcinogen call: negative (inactive)
rat, strain Osborne-Mendel, females, in feed, site: pituitary gland, lesion: adenoma, dosed 105 weeks, study length 105 weeks
  TD50: 3560 mg/kg/day (inactive)
rat, strain Osborne-Mendel, males, in feed, site: liver, lesion: hepatocellular adenoma, dosed 105 weeks, study length 105 weeks
  carcinogen call: negative (inactive)

## COc1cc(NC(=O)C(N=Nc2ccc(-c3ccc(N=NC(C(C)=O)C(=O)Nc4cc(OC)c(Cl)cc4OC)c(Cl)c3)cc2Cl)C(C)=O)c(OC)cc1Cl (stereo unspecified)
mouse, strain NMRI, both sexes, in feed, site: any site (literature study), lesion: one or several types, types not named, dosed 104 weeks, study length 104 weeks
  carcinogen call: negative (inactive)
rat, strain Sprague-Dawley, both sexes, in feed, site: any site (literature study), lesion: one or several types, types not named, dosed 104 weeks, study length 104 weeks
  TD50: 3560 mg/kg/day (inactive)

## S=C=Nc1ccccc1
mouse, strain B6AKF1, females, oral dosing, site: any site (literature study), lesion: several types, types named in the paper, dosed 76 weeks, study length 76 weeks
  TD50: 39.4 mg/kg/day (inactive)
mouse, strain B6AKF1, females, oral dosing, site: liver, lesion: hemangioma, dosed 76 weeks, study length 76 weeks
  TD50: 138 mg/kg/day (inactive)
mouse, strain B6AKF1, females, oral dosing, site: lung, lesion: adenoma, dosed 76 weeks, study length 76 weeks
  carcinogen call: negative (inactive)
mouse, strain B6AKF1, males, oral dosing, site: any site (literature study), lesion: several types, types named in the paper, dosed 76 weeks, study length 76 weeks
  carcinogen call: negative (inactive)
mouse, strain B6AKF1, males, oral dosing, site: liver, lesion: hepatoma, dosed 76 weeks, study length 76 weeks
  carcinogen call: negative (inactive)
mouse, strain B6AKF1, males, oral dosing, site: lung, lesion: adenoma, dosed 76 weeks, study length 76 weeks
  carcinogen call: negative (inactive)
mouse, strain B6C3F1, females, oral dosing, site: any site (literature study), lesion: one or several types, types not named, dosed 76 weeks, study length 76 weeks
  carcinogen call: negative (inactive)
mouse, strain B6C3F1, females, oral dosing, site: liver, lesion: hepatoma, dosed 76 weeks, study length 76 weeks
  carcinogen call: negative (inactive)
mouse, strain B6C3F1, females, oral dosing, site: lung, lesion: several types, types named in the paper, dosed 76 weeks, study length 76 weeks
  carcinogen call: negative (inactive)
mouse, strain B6C3F1, males, oral dosing, site: any site (literature study), lesion: several types, types named in the paper, dosed 76 weeks, study length 76 weeks
  TD50: 40.2 mg/kg/day (inactive)
mouse, strain B6C3F1, males, oral dosing, site: liver, lesion: hepatoma, dosed 76 weeks, study length 76 weeks
  TD50: 128 mg/kg/day (inactive)
mouse, strain B6C3F1, males, oral dosing, site: lung, lesion: adenoma, dosed 76 weeks, study length 76 weeks
  TD50: 128 mg/kg/day (inactive)
